From article PMC10458458, “Characterization of Anticancer Effects of the Analogs of DJ4, a Novel Selective Inhibitor of ROCK and MRCK Kinases” (Pharmaceuticals, 2023) come the findings set out here.

“Also recorded” adds a separate entry of the source.

One data set addresses T1, CDK14 (Homo sapiens, UniProt O94921).
T1 construct: purchased DiscoverX Corporation (Lead Hunter Discovery Services, KINOMEscan)
Description: KINOMEscan competition binding assay. The conditions noted are these: CDK14, 10 µM. The source says: (§1) To examine specificity of DJ4 to different human kinases, we performed a KINOMEscan profiling assay (DiscoverX, Fremont, CA, USA). The KINOMEscan assay consists of a panel of more than 480 kinases of different classes (TK/TKL/STE/CK1/AGC/CAMK/CMGC/others), including clinically relevant mutants, atypical kinases, lipid, and pathogen kinases. […] However, we also recognized the limitations of DJ4 that preclude its clinical development and the need for further optimization of the DJ4 chemotype.
(§2) The KINOMEscan®, in vitro competition binding assay, was performed by Lead Hunter Discovery Services (DiscoverX Corporation, Fremont, CA, USA) to determine the kinase specificity of DJ4, a novel kinase inhibitor [19, 44]. The KINOMEscan® panel consists of more than 480 kinases, including clinically relevant mutants, lipid, atypical, and pathogen kinases, plus a growing panel of activation-state specific assays. The primary screen was performed using a single concentration of 10 µM, and the results for DJ4 binding interactions are reported as percent of control (%Ctrl). The %Ctrl is calculated as follows: [(DJ4 signal-positive control signal)/(negative control DMSO signal-positive control signal)] x […]. The human kinome tree annotation for DJ4 is plotted with Reaction Biology’s Kinase Mapper and KinMap web interface tool http://kinhub.org/kinmap (accessed on 09 January 2023).

For the next data set, the target named is T2, CDK7 (Homo sapiens, UniProt P50613).
T2 construct: purchased DiscoverX Corporation (Lead Hunter Discovery Services, KINOMEscan)
T2 sequence (P50613 whole entry): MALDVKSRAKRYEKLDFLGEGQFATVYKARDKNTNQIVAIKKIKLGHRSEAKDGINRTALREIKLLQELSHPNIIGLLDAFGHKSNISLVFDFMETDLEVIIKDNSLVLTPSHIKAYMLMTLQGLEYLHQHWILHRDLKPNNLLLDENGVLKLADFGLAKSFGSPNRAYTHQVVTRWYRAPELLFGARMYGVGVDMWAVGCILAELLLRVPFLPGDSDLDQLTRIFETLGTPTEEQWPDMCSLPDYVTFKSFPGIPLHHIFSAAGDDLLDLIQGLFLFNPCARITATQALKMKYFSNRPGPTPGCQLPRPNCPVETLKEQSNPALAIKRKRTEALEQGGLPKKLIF
The experiment in a line: KINOMEscan competition binding assay. The conditions noted are these: CDK7, 10 µM.
Text: as §1, §2

A further data set concerns the target T3, CDK8 (Homo sapiens, UniProt P49336).
T3 construct: purchased DiscoverX Corporation (Lead Hunter Discovery Services, KINOMEscan)
Description: KINOMEscan competition binding assay. The conditions noted are these: CDK8, 10 µM.
Text: as §1, §2

In the next data set the target is T4, CDK9 (Homo sapiens, UniProt P50750).
T4 construct: purchased DiscoverX Corporation (Lead Hunter Discovery Services, KINOMEscan)
T4 sequence (P50750 whole entry): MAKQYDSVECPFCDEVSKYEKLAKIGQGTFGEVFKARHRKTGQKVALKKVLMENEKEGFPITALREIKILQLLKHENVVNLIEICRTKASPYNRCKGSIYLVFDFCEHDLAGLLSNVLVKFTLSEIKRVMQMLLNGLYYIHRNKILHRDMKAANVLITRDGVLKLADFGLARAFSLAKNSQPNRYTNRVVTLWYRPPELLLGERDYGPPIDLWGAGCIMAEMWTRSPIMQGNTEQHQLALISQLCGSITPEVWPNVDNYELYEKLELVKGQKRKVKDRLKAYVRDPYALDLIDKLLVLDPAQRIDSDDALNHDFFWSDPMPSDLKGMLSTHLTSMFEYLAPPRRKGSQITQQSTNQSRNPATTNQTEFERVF
The experiment in a line: KINOMEscan competition binding assay. The conditions noted are these: CDK9, 10 µM.
Text: as §1, §2

The target of a further data set is T5, FLT3 (Homo sapiens, UniProt P36888).
T5 construct: purchased DiscoverX Corporation (Lead Hunter Discovery Services, KINOMEscan)
T5 sequence (P36888 27-993): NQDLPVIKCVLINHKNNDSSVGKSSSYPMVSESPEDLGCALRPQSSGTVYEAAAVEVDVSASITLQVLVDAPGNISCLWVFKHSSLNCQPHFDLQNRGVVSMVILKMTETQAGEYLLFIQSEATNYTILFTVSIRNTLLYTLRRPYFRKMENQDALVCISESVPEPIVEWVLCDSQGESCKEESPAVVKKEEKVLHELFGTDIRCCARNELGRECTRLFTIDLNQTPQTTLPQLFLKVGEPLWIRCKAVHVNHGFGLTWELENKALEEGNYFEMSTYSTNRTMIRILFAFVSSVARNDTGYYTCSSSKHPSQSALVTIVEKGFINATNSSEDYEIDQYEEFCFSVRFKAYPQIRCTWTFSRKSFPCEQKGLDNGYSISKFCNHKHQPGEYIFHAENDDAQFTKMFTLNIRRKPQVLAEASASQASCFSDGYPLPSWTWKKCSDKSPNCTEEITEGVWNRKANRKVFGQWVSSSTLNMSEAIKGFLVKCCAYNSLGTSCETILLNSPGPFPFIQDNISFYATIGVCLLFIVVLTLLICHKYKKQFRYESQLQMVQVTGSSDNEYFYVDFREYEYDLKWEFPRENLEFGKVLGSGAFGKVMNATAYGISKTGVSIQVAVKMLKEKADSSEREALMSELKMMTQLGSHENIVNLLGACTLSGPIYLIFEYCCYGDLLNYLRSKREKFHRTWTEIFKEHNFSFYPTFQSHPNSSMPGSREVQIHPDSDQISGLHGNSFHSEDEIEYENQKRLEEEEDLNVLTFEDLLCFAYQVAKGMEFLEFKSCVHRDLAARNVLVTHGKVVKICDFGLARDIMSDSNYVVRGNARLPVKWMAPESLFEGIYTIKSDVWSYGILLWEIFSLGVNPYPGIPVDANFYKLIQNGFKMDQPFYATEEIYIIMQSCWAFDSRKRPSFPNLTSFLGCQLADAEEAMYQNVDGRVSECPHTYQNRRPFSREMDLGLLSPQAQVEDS
Description: KINOMEscan competition binding assay. Particulars: FLT3, 10 µM.
Text: as §1, §2

In a further data set the target is T6, KIT (Homo sapiens, UniProt P10721).
T6 construct: purchased DiscoverX Corporation (Lead Hunter Discovery Services, KINOMEscan)
The experiment in a line: KINOMEscan competition binding assay.
Text: as §1, §2

For another data set, the target named is T7, MRCK1 (Homo sapiens, UniProt Q5VT25).
T7 construct: purchased DiscoverX Corporation (Lead Hunter Discovery Services, KINOMEscan)
The experiment in a line: KINOMEscan competition binding assay. The conditions noted are these: MRCK1, 10 µM.
Text: as §1, §2

Another data set has as its target T8, MRCK2 (Homo sapiens, UniProt Q9Y5S2).
T8 construct: purchased DiscoverX Corporation (Lead Hunter Discovery Services, KINOMEscan)
The experiment in a line: KINOMEscan competition binding assay. Particulars: MRCK2, 10 µM.
Text: as §1, §2

Data set [1] in a line: Solubility in culture media at 10 µM (observation). Particulars: NCI-60 screening. It is filed as physicochemical. As to the method:
To study the effectiveness of these analogs in a vast range of cancer cell lines, the compounds were subjected to cell viability screening in the NCI-60 human cancer cell line panel representing nine different cancer types (Supplementary Figure S2). Testing of the compounds in such a wide range of cancer types helps identify sensitivity and selectivity of specific types of cancers to the novel compounds. The initial screening was performed at a single concentration of 10 µM. At 10 µM, both DJ110 and DJ-Morpholine were insoluble and were, therefore, ineffective. The parental DJ4 compound was effective in a wide spectrum of cancer cell lines, with breast cancer, NSCLC, and central nervous system cancers displaying the most consistent response. The ovarian cancer cell line NCI/ADR-RES and HCC-2998 colon cancer cells were relatively resistant to DJ4 (IC50 > 10 µM) (Supplementary Figure S2). […] NCI/ADR-RES (ovarian), RPMI-8226, and K-562 (leukemia) cell lines were relatively resistant (29%, 29%, 26% increase in cell number) to DJE4. […] Two CNS cell lines, SNB-75 and SF-539, were the most sensitive in which DJ-Allyl induced the cell death (60% reduction in cell number). NCI/ADR-RES (ovarian), MALME-3M (melanoma), HCC-2998 (colon), RPMI-8226, and K-562 (leukemia) were relatively resistant (~40% increase in cell number) to DJ-Allyl. […]

Data set [2] relates to NCI-60 human cancer cell line panel. The experiment in a line: NCI-60 single concentration screen, whole panel. The class given is cell-based. The conditions noted are these: single concentration 10 µM. The source says: The selected active compounds were screened at NCI, as a part of In Vitro Cell Line Screening Project (IVCLSP), for their effect on cell growth in 60 different cancer cell lines. The 60 human cancer cell line panel included leukemia, melanoma, non-small cell lung cancer, colon, central nervous system (CNS), ovarian, renal, prostate, and breast cancer cell lines. The detailed procedure and applications of NCI-60 cell line screening can be found at https://dtp.cancer.gov/discovery_development/nci-60/default.htm (accessed on 9 January 2023). Briefly, cells were plated in 96-well plates and incubated for 24 h. One set of cells was fixed with trichloroacetic acid at time 0 h (Tz), and SRB (sulphorhodamine B) assays were performed to quantify the cells. The remaining set of cells were treated with 10 µM single concentration of each compound and incubated for 48 h (Te) after which the cells were fixed, and the SRB assays were performed. Data are presented as percent growth relative to the control as 100% according to the following calculations:
When Te >/= Tz. Growth(%)=Te−Tz/C−Tz∗100 and when Te < Tz. (1) Growth(%)=Te−Tz/Tz∗100
Values between 0–100 indicate cell growth, zero (0) indicates no cell growth, values < 0 indicate cell death.

T3 sequence (P49336 whole entry): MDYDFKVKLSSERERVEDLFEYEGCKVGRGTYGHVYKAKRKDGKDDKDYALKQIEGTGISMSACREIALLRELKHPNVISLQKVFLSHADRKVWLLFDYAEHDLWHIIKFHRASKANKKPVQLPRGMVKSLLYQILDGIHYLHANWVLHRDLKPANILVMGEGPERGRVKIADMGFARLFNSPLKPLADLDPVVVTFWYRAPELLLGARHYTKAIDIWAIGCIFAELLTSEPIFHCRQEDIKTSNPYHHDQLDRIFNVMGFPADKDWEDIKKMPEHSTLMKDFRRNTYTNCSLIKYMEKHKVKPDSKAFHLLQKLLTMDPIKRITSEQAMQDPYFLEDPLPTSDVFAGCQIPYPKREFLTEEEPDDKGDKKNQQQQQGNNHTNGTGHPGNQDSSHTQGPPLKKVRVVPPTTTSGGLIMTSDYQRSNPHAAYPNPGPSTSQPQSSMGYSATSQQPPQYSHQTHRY
T1 sequence (O94921 whole entry): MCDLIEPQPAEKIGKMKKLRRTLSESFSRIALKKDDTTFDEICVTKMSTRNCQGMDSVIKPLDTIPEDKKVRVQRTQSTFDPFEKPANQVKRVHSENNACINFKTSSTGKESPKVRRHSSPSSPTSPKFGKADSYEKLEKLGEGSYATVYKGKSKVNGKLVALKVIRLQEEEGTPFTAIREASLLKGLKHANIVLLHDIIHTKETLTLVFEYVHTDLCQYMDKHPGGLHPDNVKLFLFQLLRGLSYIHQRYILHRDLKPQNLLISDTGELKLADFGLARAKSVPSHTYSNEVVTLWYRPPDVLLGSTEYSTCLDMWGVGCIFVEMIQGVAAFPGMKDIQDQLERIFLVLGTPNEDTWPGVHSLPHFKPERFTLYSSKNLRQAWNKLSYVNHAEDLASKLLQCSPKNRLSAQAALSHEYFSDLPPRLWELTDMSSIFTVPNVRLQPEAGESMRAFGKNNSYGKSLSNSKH
T8 sequence (Q9Y5S2 whole entry): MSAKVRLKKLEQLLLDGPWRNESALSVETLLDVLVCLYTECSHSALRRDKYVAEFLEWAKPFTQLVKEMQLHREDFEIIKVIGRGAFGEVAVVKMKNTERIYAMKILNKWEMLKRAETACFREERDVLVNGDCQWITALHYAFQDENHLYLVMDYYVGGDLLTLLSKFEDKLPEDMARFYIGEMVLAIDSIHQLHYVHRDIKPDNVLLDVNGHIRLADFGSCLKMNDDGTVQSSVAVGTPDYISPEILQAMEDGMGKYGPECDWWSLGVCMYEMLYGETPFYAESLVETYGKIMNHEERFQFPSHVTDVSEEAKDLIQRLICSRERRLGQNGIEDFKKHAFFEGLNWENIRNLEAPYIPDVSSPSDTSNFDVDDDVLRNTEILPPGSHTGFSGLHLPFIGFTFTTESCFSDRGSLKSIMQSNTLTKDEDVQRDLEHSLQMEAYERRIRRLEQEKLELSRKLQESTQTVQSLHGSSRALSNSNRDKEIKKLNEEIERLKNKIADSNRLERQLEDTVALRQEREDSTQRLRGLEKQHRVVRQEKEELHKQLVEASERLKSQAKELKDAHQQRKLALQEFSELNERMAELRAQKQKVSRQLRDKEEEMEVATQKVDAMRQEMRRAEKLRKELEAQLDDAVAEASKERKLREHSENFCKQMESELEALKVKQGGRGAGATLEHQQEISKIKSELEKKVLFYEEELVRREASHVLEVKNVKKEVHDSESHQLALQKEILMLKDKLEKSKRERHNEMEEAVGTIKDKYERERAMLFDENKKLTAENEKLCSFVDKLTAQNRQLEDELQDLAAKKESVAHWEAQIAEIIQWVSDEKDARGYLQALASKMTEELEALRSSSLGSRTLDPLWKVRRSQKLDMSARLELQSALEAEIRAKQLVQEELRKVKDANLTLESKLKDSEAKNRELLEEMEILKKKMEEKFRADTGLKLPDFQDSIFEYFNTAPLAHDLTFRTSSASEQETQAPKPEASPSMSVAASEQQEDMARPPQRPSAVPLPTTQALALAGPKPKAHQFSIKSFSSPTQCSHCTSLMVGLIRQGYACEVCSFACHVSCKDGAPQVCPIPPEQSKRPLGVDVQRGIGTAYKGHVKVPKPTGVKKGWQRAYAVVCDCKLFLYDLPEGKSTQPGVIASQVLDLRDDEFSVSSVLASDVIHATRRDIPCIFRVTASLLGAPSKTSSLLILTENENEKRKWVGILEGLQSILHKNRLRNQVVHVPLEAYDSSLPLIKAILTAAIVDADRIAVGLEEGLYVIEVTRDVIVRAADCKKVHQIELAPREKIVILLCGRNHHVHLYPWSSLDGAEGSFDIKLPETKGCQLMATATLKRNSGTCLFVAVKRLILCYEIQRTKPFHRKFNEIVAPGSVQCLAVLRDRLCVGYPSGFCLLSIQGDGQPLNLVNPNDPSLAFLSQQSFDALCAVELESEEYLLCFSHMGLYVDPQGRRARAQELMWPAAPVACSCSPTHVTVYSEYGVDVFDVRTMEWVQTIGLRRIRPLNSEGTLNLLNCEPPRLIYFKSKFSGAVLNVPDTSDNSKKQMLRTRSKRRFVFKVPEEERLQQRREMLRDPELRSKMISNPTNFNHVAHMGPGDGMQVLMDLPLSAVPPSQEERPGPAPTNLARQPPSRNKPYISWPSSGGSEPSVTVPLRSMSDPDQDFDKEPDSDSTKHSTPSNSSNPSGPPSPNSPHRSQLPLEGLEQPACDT

What is called inhibition is the relative decrease from the control value, in per cent. A lower inhibition goes with little suppression. For `O=C1N/C(=N\CCc2ccccc2)S/C1=C/c1c[nH]c2ncccc12` [DJ4], the inhibition at 10 µM at CDK14, at CDK7, at CDK8, on CDK9, at FLT3 and at KIT was greater than 98% each time. Besides, the inhibition at 10 µM at MRCK1 and at MRCK2 was greater than 98% each time.

As to `O=C1N/C(=N\Cc2ccccc2)S/C1=C/c1c[nH]c2ncccc12` [DJ110], the “solubility at 10 µM in culture media” value in data set [1] is given as “insoluble; also recorded: sparingly soluble”. In [2], the “effectiveness in NCI-60 screening” value is on record as “ineffective”.

For `O=C1N/C(=N\CCN2CCOCC2)S/C1=C/c1c[nH]c2ncccc12` [DJ-Morpholine], the “solubility at 10 µM in culture media” value in [1] is “insoluble; also recorded: sparingly soluble”. Moreover, in data set [2], the “effectiveness in NCI-60 screening” value is reported as “ineffective”.
